Results from patent US20240173440A1, “HIGH PURITY COPPER RADIOPHARMACEUTICAL COMPOSITIONS AND DIAGNOSTIC AND THERAPEUTIC USES THEREOF” (Nuclidium AG, priority 2022, published 2024).

How the values were obtained:
[1] = Remaining PET activity in the mouse body 4h p.i.; type: in vivo; settings: mice
Method: PET/CT Imaging: Mice bearing FAP-positive and FAP-negative xenografts were injected intravenously with ^61Cu-labeled radioligands of the present disclosure or ^61Cu-NODAGA-FAPI-46 (100 μL/[…]/6-12 MBq). […] The mice were euthanized by CO2 at 4 hours p.i., and static PET scans were acquired for 30 min.
Remaining PET activity in the mouse body 4h p.i. prior to the 4h scan was determined (Table 36).

[2] = tested on: HT-1080.hFAP and HT-1080.wt xenografts; assay: Quantitative biodistribution in HT-1080.hFAP and HT-1080.wt xenografted mice; type: in vivo; settings: for Biodistribution HT-1080.wt: FAP-negative tumor; for Biodistribution HT-1080.hFAP: FAP-positive tumor
Method: The tumors were allowed to grow to an average volume of 100-200 mm3.
Biodistribution Studies: The xenografted mice were randomized (n=5 per group) and injected intravenously via the tail vein with the ^61Cu-labeled radioligands (100 μL, […], 0.8-1MBq). Mice were euthanized 1h and 4h pi. by CO2 asphyxiation. Organs of interest and blood were collected, rinsed of excess blood, blotted dry, weighed, and counted in a […]. The samples were counted against a suitably diluted aliquot of the injected solution as the standard and the results are expressed as the percentage of the injected activity per gram of tissue (0% I.A./g)+SD.

[3] = target: hFAP (Homo sapiens (Human), UniProt Q12884); assay: Saturation binding on isolated HEK-293.hFAP cell membranes; parameters: Bmax: unit not given here; settings: 37° C.
Sequence of hFAP (Q12884 whole entry): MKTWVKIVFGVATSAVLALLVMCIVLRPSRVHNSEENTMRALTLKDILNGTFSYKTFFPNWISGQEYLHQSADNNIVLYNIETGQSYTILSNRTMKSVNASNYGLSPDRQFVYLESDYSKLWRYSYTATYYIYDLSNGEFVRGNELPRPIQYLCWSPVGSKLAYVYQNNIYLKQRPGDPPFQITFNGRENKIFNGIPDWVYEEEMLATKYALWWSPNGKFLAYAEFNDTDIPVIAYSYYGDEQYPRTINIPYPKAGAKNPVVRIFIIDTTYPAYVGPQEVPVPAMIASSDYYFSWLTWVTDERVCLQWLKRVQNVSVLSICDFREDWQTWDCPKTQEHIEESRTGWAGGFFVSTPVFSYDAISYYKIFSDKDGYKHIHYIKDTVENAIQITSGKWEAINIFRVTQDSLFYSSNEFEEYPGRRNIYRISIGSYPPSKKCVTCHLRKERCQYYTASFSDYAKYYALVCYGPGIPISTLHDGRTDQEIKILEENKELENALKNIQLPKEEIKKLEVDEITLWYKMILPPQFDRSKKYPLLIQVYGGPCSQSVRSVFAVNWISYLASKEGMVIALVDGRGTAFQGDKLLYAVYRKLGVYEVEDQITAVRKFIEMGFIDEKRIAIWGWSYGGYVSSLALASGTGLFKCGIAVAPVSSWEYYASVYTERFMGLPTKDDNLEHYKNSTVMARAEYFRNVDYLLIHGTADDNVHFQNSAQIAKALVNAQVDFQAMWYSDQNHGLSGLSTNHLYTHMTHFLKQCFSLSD
Method: The cells were homogenized using Ultra-Turrax, and the homogenized suspension was centrifuged at 500×g for 10 min at 4° C. The supernatant was collected in centrifuge tubes (Beckman Coulter Inc., Brea, CA, USA). This procedure was then repeated 5 times. The collected supernatant was centrifuged in an ultra-centrifuge (Beckman) at 4° C. for 55 min at 49,000×g. Then, the pellet was re-suspended in 10 mM ice-cold HEPES buffer (pH 7.5), aliquoted, and stored at −80° C. The protein concentration of those membrane suspensions was determined by the Bradford method, BSA as the standard.
Each assay tube contained 170 μL of binding buffer (20 mM HEPES, pH 7.4, containing 4 mM μgCl2, 0.2% BSA, 20 μg/L bacitracin, 20 μg/L PMSF and 200,000 KIU/L aprotinin). The incubation was initiated by adding 30 μL of radioligand solution at 10 times the final concentration and 100 μL of cell membrane suspension to yield 10 μg of protein per well. For the determination of the non-specific binding, 140 μL of the above binding buffer was added along with 30 μL of FAPI-46 to obtain (0.1 mM). Bound fractions were plotted versus the corresponding radioligand concentration at equilibrium. The dissociation constant (KD) and maximal binding capacity (Bmax) values were calculated using GraphPad Software Inc., Prism 7, San Diego, CA, USA (Table 33 and FIG. 21).

[4] = 1 h p.i., HT-1080.hFAP and HT-1080.wt xenografts
[5] = 4 h p.i., HT-1080.hFAP and HT-1080.wt xenografts

N#C[C@@H]1CC(F)(F)CN1C(=O)CNC(=O)c1ccnc2ccc(NC(=O)CCC(=O)NCCNC(=O)CC[C@H](C(=O)O)N3CCN4CCN(CC3)CC(=O)[O][61Cu][O]C(=O)C4)cc12 [[^61Cu]Cu-NODAGA-F1]
retention in the body (remaining PET activity) [1]: highest retention in the body | Biodistribution Spleen ([2]; 1 hour p.i.): 0.8 ± 0.1 % I.A./g | Biodistribution Adrenal [2, 4]: 2.3 ± 0.5 % IA/g | Biodistribution Blood [2, 4]: 2.3 ± 0.1 % IA/g | Biodistribution Femur [2, 4]: 10.9 ± 1.1 % IA/g | Biodistribution HT1080.hFAP (FAP-positive tumor) [2, 4]: 12.6 ± 1.5 % IA/g | Biodistribution HT1080.wt (FAP-negative tumor) [2, 4]: 4.5 ± 0.6 % IA/g | Biodistribution Heart [2, 4]: 1.2 ± 0.3 % IA/g | Biodistribution Intestine [2, 4]: 1.7 ± 0.4 % IA/g | Biodistribution Kidney [2, 4]: 2.4 ± 0.3 % IA/g | Biodistribution Liver [2, 4]: 1.5 ± 0.0 % IA/g | Biodistribution Lung [2, 4]: 1.8 ± 0.0 % IA/g | Biodistribution Muscle [2, 4]: 2.6 ± 0.7 % IA/g | Biodistribution Pancreas [2, 4]: 2.5 ± 0.3 % IA/g | Biodistribution Spleen [2, 4]: 0.8 ± 0.1 % IA/g | Biodistribution Stomach [2, 4]: 1.1 ± 0.2 % IA/g | Biodistribution Heart ([2]; 4 hours p.i.): 0.7 ± 0.1 % I.A./g | Biodistribution Liver ([2]; 4 hours p.i.): 1.0 ± 0.2 % I.A./g | Biodistribution Lung ([2]; 4 hours p.i.): 0.8 ± 0.2 % I.A./g | Biodistribution Spleen ([2]; 4 hours p.i.): 0.5 ± 0.1 % I.A./g | Biodistribution Stomach ([2]; 4 hours p.i.): 0.7 ± 0.1 % I.A./g | Biodistribution Adrenal [2, 5]: 1.4 ± 0.2 % IA/g | Biodistribution Blood [2, 5]: 1.2 ± 0.3 % IA/g | Biodistribution Femur [2, 5]: 4.2 ± 1.5 % IA/g | Biodistribution HT1080.hFAP (FAP-positive tumor) [2, 5]: 7.1 ± 3.0 % IA/g | Biodistribution HT1080.wt (FAP-negative tumor) [2, 5]: 2.1 ± 0.5 % IA/g | Biodistribution Heart [2, 5]: 0.7 ± 0.1 % IA/g | Biodistribution Intestine [2, 5]: 1.1 ± 0.4 % IA/g | Biodistribution Kidney [2, 5]: 1.5 ± 0.5 % IA/g | Biodistribution Liver [2, 5]: 1.0 ± 0.2 % IA/g | Biodistribution Lung [2, 5]: 0.8 ± 0.2 % IA/g | Biodistribution Muscle [2, 5]: 1.3 ± 0.1 % IA/g | Biodistribution Pancreas [2, 5]: 1.4 ± 0.2 % IA/g | Biodistribution Spleen [2, 5]: 0.5 ± 0.1 % IA/g | Biodistribution Stomach [2, 5]: 0.7 ± 0.1 % IA/g | Biodistribution HT-1080.wt ([2]; 1 hour p.i.): 4.5 ± 0.6 % I.A./g | Biodistribution HT-1080.wt ([2]; 4 hours p.i.): 2.1 ± 0.5 % I.A./g | Biodistribution HT-1080.hFAP ([2]; 1 hour p.i.): 12.6 ± 1.5 % I.A./g | Biodistribution HT-1080.hFAP ([2]; 4 hours p.i.): 7.1 ± 3.0 % I.A./g | accumulation in tumor and target-positive tissues ([2]; HT-1080.hFAP and HT-1080.wt xenografts): high accumulation in FAP-positive (HT-1080.hFAP) tumor and murine-FAP-positive tissues | Bmax [3]: 8.6-9.2
